Results as given in patent US20160068527A1, “The Treatment of Inflammatory Disorders” (CRESSET BIOMOLECULAR DISCOVERY LTD., priority 2013, published 2016).

Legend:
human mast cells [1] = assay: Inhibition of histamine release from human mast cells; assay type: cell-based; settings: IgE challenged human cord derived mast cells, 5 min incubation, FIG. 1
Method: Protocol: Human derived cord mast cells were cultured using the following method. Commercially available CD34^+ stem cells were cultured for […] in StemSpan (StemCell Technologies, Grenoble, France) serum-free medium supplemented with 100 ng/ml human SCF, 50 ng/ml IL-6 and 1 ng/ml IL-3, and 100 μg/ml penicillin/streptomycin (Peprotech, London, UK). After eight weeks, cells were cultured in StemSpan with 10% FCS. The cells were passaged into new medium every week. Cells were used for experiments between 11 and 18 weeks following confirmation by microscopic examination, c-kit and FcRε1 staining (by FACS), of mast cell morphology. For assessment of drug effects, Nalidixic Acid was incubated for 5 min with aliquots of 2×10^5 CDMCs (cord derived mast cells) cultured in 10% FCS medium. A commercially-available enzyme immunoassay was used to detect and quantify histamine released in the supernatant (SPI bio, Strasbourg, France). The assay was conducted following the manufacturer protocols. A standard curve ranging from 0.39-50 nM histamine was prepared using the reagent provided and the optical density was then read within 60 min in a microplate reader (at 405 nm). In some cases, the total cell content of histamine was established by freeze thawing of cells prior to challenge

human mast cells [2] = assay: Inhibition of Prostaglandin D2 release from human mast cells; assay type: cell-based; settings: IgE challenged human cord derived mast cells, FIG. 2
Method: Human cord derived mast cells were cultured using the methodology described in Example 1. A commercially-available enzyme immunoassay (Cayman Chemical, Michigan, USA) was used to detect and quantify PGD2 released in the supernatant. The assay was conducted following the manufacturer protocols. A standard curve ranging from 78-10,000 pg/ml PGD2 was prepared using the reagent provided and the optical density was then read within 60 min in a microplate reader (at 405 nm).

human mast cells [3] = assay: Release of Annexin-A1 from human mast cells (ELISA); assay type: cell-based; settings: increasing concentrations of Nalidixic acid, conditioned medium, FIG. 3
Method: Human cord derived mast cells were cultured using the methodology described in Example 1. Anx-A1 protein levels in conditioned medium were determined by ELISA. Briefly, 96-well flat-bottomed ELISA plates (Greiner, Gloucestershire, UK) were coated with 1 μg anti-Anx-A1 mAb 1B in bicarbonate buffer (pH 9.6) and incubated overnight at 4° C. After washing in the bicarbonate buffer, potentially uncoated sites were blocked with 100 μL of PBS containing 1% BSA for 1h at room temperature. Sample aliquots (100 μL) or Anx-A1 standard solutions (prepared in 0.1% Tween-20 in PBS; concentration ranging between 10 and 0.001 μg/mL) were added for 1h at 37° C. After extensive washing in PBS/Tween-20, 100 μL of a polyclonal rabbit anti-human Anx-A1 serum (Zymed, Invitrogen, Paisley, UK; diluted 1:1000 in PBS/Tween-20) was added (1h at 37° C.) prior to incubation with donkey anti-rabbit 1 gG conjugated to alkaline phosphatase (1:1000; Sigma). The colour was developed by addition of 100 μL p-nitrophenyl phosphate (1 mg/mL in bicarbonate buffer, pH 9.6). Absorbance was read at 405 nm (with a 620-nm reference filter) in a microplate reader (Titertek™, Vienna, Austria). Anx-A1 levels in the study samples were read against the standard curve and expressed as ng/ml.

[4] = test system: ovalbumin induced murine model of asthma; assay: Ovalbumin induced murine model of asthma, BALF eosinophils; assay type: in vivo, mouse; settings: female BALB/c mice, 0.3 mg/kg intranasal, OVA challenge
Method: The effects of locally administered Nalidixic acid were studied in a mouse model of asthma. Female BALB/c mice, 8 animals per group, were sensitised to ovalbumin (OVA, 10 mg) by intra-peritoneal injection on days 1 and 14 of the study. On days 20, 21, 22 and 23 animals either received a challenge dose of ovalbumin (50 μg) to the lung given by intranasal administration or 50 μl of phosphate buffered saline (PBS, non-challenged group). Animals challenged with OVA also received either PBS vehicle or Nalidixic acid (0.3 mg/kg of body weight) given by intranasal administration for inhalation into the lung. This was administered 30 minutes prior to and 6 hours post each ovalbumin challenge on days 21 to 23 and in addition on day 24, the day between the last challenge and the terminal day of the experiment. Forty-eight hours after the final OVA challenge, mice were anaesthetised with a combination of ketamine hydrochloride (Narketan, 2 mg/mouse) and xylazine hydrochloride (Rompun, 0.07 mg/mice) and sacrificed by carotid exsanguination.
Bronchoalveolar lavage fluid (BAL) was obtained as follows. The trachea was cannulated. Phosphate Buffered Saline (PBS) was used as the lavage fluid, 3 volumes (0.4 ml; 0.3 ml; 0.3 ml; total 1 mL) were gently instilled and withdrawn on 3 consecutive occasions using a 1 ml BD syringe and then placed in an Eppendorf tube (˜1 ml). […]

phosphatase PP2A = phosphatase PP2A (Homo sapiens, UniProt P67775); assay: Inhibition of the phosphatase PP2A; assay type: biochemical; settings: statement in summary, no method or data
phosphatase PP2A, sequence (P67775 whole entry): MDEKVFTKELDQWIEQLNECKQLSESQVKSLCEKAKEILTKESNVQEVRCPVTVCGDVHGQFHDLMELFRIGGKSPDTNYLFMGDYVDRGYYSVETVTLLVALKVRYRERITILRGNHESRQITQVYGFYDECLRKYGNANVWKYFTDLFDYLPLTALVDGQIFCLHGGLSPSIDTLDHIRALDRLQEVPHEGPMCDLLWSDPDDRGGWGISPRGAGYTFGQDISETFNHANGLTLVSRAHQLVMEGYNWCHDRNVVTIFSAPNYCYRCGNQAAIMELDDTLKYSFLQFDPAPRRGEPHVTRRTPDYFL

inhibition of the phosphatase PP2A (phosphatase PP2A): potent inhibitors
SMILES: CCn1cc(C(=O)O)c(=O)c2ccc(C)nc21 [Nalidixic acid]
inhibition of histamine release (human mast cells [1]): dose related inhibition
inhibition of PGD2 release (human mast cells [2]): dose related inhibition
Annexin-A1 released from human mast cells (human mast cells [3]): increase
decrease in total BALF eosinophil counts compared with challenged vehicle treated animals ([4]; p<0.05, FIG. 4): 47%
reduction of percentage of eosinophils of the total BALF cellular count versus vehicle treated group ([4]; p<0.05, FIG. 5): 44%
